Test results as given in ChEMBL document CHEMBL1145108, “Fragment screening and assembly: a highly efficient approach to a selective and cell active protein tyrosine phosphatase 1B inhibitor” (J Med Chem, 2003).

Key:
[1] = biological target: T1, Tyrosine-protein phosphatase non-receptor type 1 (Homo sapiens, UniProt P18031); experiment: Dissociation constant against Protein-tyrosine phosphatase 1B receptor was determined
T1 sequence (P18031 whole entry): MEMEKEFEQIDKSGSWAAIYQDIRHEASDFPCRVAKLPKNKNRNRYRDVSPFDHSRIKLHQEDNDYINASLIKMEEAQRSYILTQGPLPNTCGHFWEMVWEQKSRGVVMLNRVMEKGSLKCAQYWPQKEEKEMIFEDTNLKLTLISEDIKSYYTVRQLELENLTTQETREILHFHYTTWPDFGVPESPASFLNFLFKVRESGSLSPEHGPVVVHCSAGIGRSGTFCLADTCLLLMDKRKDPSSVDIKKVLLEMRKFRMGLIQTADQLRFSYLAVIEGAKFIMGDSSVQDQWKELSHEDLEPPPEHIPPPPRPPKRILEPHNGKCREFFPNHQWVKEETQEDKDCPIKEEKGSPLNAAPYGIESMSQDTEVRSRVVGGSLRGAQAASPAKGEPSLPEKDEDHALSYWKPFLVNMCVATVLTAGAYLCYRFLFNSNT

[2] = biological target: Tyrosine-protein phosphatase non-receptor type 2 (Homo sapiens, UniProt P17706); experiment: Inhibitory constant of compound against T cell protein tyrosine phosphatase was determined; type: cell-based
[3] = biological target: T1, Tyrosine-protein phosphatase non-receptor type 1
Description: Binding affinity against protein tyrosine phosphatase PTB1B

Tyrosine-protein phosphatase non-receptor type 2, sequence (P17706 whole entry, looked up): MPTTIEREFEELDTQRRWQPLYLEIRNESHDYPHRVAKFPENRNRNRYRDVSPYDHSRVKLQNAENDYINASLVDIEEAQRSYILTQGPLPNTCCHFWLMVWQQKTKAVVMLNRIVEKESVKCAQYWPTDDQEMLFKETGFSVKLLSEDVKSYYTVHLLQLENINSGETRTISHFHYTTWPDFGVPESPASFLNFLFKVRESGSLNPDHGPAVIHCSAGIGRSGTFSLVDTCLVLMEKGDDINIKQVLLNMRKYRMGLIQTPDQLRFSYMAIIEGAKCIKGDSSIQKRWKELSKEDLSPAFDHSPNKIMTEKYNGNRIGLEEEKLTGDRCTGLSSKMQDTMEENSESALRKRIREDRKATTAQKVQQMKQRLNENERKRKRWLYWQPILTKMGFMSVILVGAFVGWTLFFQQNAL

Compound	Kd [1] [µM]	Ki [2] [µM]	Ki [3] [µM]
O=C(O)c1cc(-c2ccc(Br)cc2)on1	800		
CCCC(=O)Nc1cccc(-c2cc(C(=O)O)no2)c1		634	148
